SMILES strings stand for the structures.

The test system of test [1] is C57BL/6J mice. Description: Chronic intermittent ethanol (CIE) exposure mouse model of ethanol dependence. Format: in vivo. The protocol:
Briefly, mice were divided into test (ethanol dependent) and control (non-ethanol dependent) groups. Mice in the former group were exposed to chronic intermittent ethanol (CIE) vapor (16 hr/day×4 days), and then forced to abstain from alcohol for 72 hours. Mice were then permitted access to ethanol for 2 h/day for a 5-day test period. This pattern of weekly CIE exposures followed by 5-day test periods was repeated for 9 cycles. Mice in the control group were treated in the same manner, except these animals were exposed to air rather than ethanol vapors. Mice from both groups were further divided into four sub-groups with animals receiving 0 mg/Kg, 3 mg/Kg, 6 mg/Kg or 12 mg/Kg dose of ibudilast.
In a separate study, adult male C57BL/6J mice were used to evaluate ibudilast as a therapeutic for the treatment of alcohol dependence. Two groups of mice were used for the study. Mice in the first group were trained to drink ethanol using a 2 h/day free-choice (15% v/v ethanol) drinking procedure (ethanol dependent (EtOH) mice), while mice in the second group were provided water and served a control (ethanol nondependent (CTL)) mice. Both the ethanol dependent and ethanol non-dependent groups had equal number of mice (N=37-38/group).
Mice in the alcohol dependent group were then exposed to chronic intermittent ethanol (CIE) vapors for 16 hr/day over four days. After a 72 hours forced abstinence period, the ethanol dependent mice were again permitted access to ethanol for 2 hours each day over a 5 consecutive test days. This pattern of chronic intermittent ethanol vapor exposure for four consecutive days followed by forced abstinence and a five day ethanol access test period was repeated for 9 cycles. Mice in the control (CTL) group were treated in a similar manner except that air was used in the inhalation chambers in place of ethanol vapors.
Both control and ethanol dependent mice received subcutaneous (s.c.) injections of the vehicle at 9 hours and 1 hour prior to the start of daily drinking sessions during Test Cycles 4, 5 and 6 to acclimate the animals to handling and administration of injections.
At the end of test cycle 6, mice in the ethanol dependent group and the control group were separated into four sub-groups with animals receiving one of four doses of ibudilast—0 mg/Kg, 3 mg/Kg, 6 mg/Kg or 12 mg/Kg during Test Cycles 7 and 8. Each sub-group contained 9-10 mice (N=9-10/group). The dose of ibudilast was increased during Test Cycle 9 with ethanol dependent and control mice receiving one of the following four doses of ibudilast—0 mg/Kg, 6 mg/Kg, 12 mg/Kg, or 18 mg/Kg. Thus, mice previously receiving a dose of […] were administered ibudilast at a dose of 18 mg/Kg during Test Cycle 9.

For test [2], the system named is non-treatment-seeking individuals with AUD. Description: Phase 1b study: stress reactivity assessment (SR). The test is classed as in vivo, human. To be noted: 50 mg BID. From the text: Personal information collected at the time of admission (day 1) to the CRTC was used to generate personalized scripts of neutral and stressful conditions. Participants were asked to identify a recent stressful experience and to rate them on a 0 to 10 Likert scale, where a rating of 10 is considered to be the most stressful experience. Only stressful events rated≥8 were used in script development. Data on physical symptoms associated with the stressful and neutral events were also collected for script development.
During the study, each exposure consisted of 5-minute tape-recorded scripts recounting the recent stressful (or neutral) events in the participants' lives, including cognitions and physical feelings. […]
The following measures of mood, urge to drink, and physiological reactivity were administered at baseline and post-imagery for both the stress and neutral conditions: (1) The Profile of Mood States, Short Version (POMS) collected data on (a) positive and negative mood; (2) The Alcohol Urge Questionnaire (AUQ) measured subjective levels of alcohol cravings at the present moment (i.e., following stress imagery); (3) Cortisol levels were assessed by collecting saliva samples and heart rate and blood pressure were measured using a Dynamap Adult Vital Signs Monitor. […]

Turning to `CC(C)C(=O)c1c(C(C)C)nn2ccccc12` [ibudilast, Ibudilast], the “ethanol intake of alcohol dependent mice vs control group counterparts” value in test [1] (6 mg, Test Cycle 9, p<0.05) is reported as “consumed significantly more ethanol”. In test [1] (12 mg/Kg and 18 mg/Kg, Test Cycle 9), the “difference in ethanol intake between alcohol dependent and control mice” value is on record as “no significant difference”. In test [1] (12 mg/Kg and 18 mg/Kg, Test Cycle 9, p<0.01), the “reduction of ethanol intake, alcohol dependent vs control mice (Group x Dose interaction)” value is “more effective at reducing ethanol intake in alcohol dependent mice than control mice”. The ethanol intake entry in test [1] (12 mg/Kg s.c., alcohol dependent mice, before Test Cycle 8 (FIG. 2)) was “reduced ethanol in alcohol dependent mice”. Besides, in test [1] (12 mg/Kg, Test Cycle 8, both alcohol dependent and control mice, p<0.05), the “ethanol consumption relative to vehicle” value is reported as “reduced ethanol consumption to a greater extent”. Also, the concurrent water intake result in test [1] (associated with decreased ethanol intake) is recorded as “significant increases”. Moreover, the “ethanol intake of test (ethanol dependent) group vs control group” value in test [1] (at the higher doses (FIG. 2)) is given as “below those for mice in the control group”. Besides, the “stress-induced AUQ craving” value in test [2] (day 5 stress-exposure) is “did not affect”. Also, the “positive mood during stress procedures” value in test [2] (p<0.05, FIG. 6) is listed as “increased positive mood”.

These data come from US20190151294A1, “TREATMENT OF ALCOHOLISM AND DEPRESSION AND/OR DYSPHORIC MOOD USING IBUDILAST” (MEDICINOVA, INC., priority 2016, published 2019).
